Source: patent US20250257075A1, “MACROCYCLIC INHIBITORS OF KRAS FOR THE TREATMENT OF CANCER” (Hoffmann-La Roche Inc., priority 2022, published 2025)

Tests used:
[1] = molecular target: T1, KRAS G12C-BRAF complex (Homo sapiens, UniProt P01116+P62937, G12C); test: KRAS-BRAF with CYPA (500 nM) interaction assay (TR-FRET), G12C; format: biochemical; conditions: 3 hours
T1 construct: expressed in transfected cells
Summary of the method: (§1)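 TR-FRET (Ex320 nm, Em 665/615 nm) measured compound- or compound-CYPA-dependent disruption of KRAS-BRAF complex, with CYPA at 500 nM. Disruption scored as decrease in TR-FRET ratio versus DMSO control wells.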

[2] = test system: human hepatocytes; test: Human hepatocyte stability assay; format: in vitro ADME; conditions: for Clearance Category: human hepatocytes
Description: The hepatocyte stability assay measures the rate of disappearance of a compound from incubations with cryopreserved suspension hepatocytes from human. Positive controls, including Midazolam, Raloxifene and Dextromethorphan, are included in every experiment. Incubations consist of 1 μM tested compound and suspension of human hepatocytes (1×10^6 cells/mL) in supplemented Williams' E Medium with 10% FBS and 0.5% Penicillin-streptomycin. The hepatocyte suspension was incubated with intermittent shaking 900 rpm at 37° C., in a 5% CO2 incubator. The reaction was stopped by adding methanol containing internal standard (2 μM Tolbutamide) at 2, 10, 20, 40, 60 and 120 minutes after compound addition, depletion of the parent compound was monitored by LC-MS/MS analysis.

[3] = test system: NCI-H358 cells (KRAS G12C); test: Cell viability assay, G12C; format: cell-based, human; conditions: Homo sapiens; NCI-H358, 72 hrs, Cell Counting Kit-8
Summary of the method: (§2)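 Cells were seeded at 5,000 cells/well (NCI-H358) or 2,000 cells/well (AGS, SW620), incubated overnight, then treated with compounds in 0.5% DMSO final for 72 hrs. CCK-8 was added and OD450 minus OD650 read after 2 hrs; IC50 came from a 4-parameter sigmoidal fit.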

[4] = test system: phosphorylation of ERK, KRAS G12C in NCI-H358 cells; test: pERK inhibition assay, G12C; format: cell-based, human; conditions: Homo sapiens; NCI-H358, 4 hours of incubation
Summary of the method: (§3)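 NCI-H358 (G12C), AGS (G12D) and SW620 (G12V) cells were seeded overnight at 30,000, 20,000 and 30,000 cells/well, respectively. They were then treated 4 h with compound (0.5% DMSO final), fixed, and methanol-permeabilized. pERK was detected by in-cell ELISA (anti-pERK/HRP, TMB, OD450); IC50 from a 4-parameter sigmoidal fit.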

[5] = test system: SW620 cells (KRAS G12V); test: Cell viability assay, G12V; format: cell-based, human; conditions: Homo sapiens, SW-620; SW620, 72 hrs, Cell Counting Kit-8
Summary of the method: as §2

[6] = molecular target: KRAS G12V binding to BRAF (Homo sapiens, UniProt P01116+P62937, G12V); test: KRAS-BRAF with CYPA (500 nM) interaction assay (TR-FRET), G12V; format: biochemical; conditions: 3 hours
Summary of the method: as §1

[7] = test system: phosphorylation of ERK, KRAS G12D in AGS cells; test: pERK inhibition assay, G12D; format: cell-based, human; conditions: Homo sapiens, 4 hours of incubation
Summary of the method: as §3

[8] = test system: phosphorylation of ERK, KRAS G12V in SW620; test: pERK inhibition assay, G12V; format: cell-based, human; conditions: Homo sapiens, SW-620; SW620, 4 hours of incubation
Summary of the method: as §3

[9] = test system: AGS cells (KRAS G12D); test: Cell viability assay, G12D; format: cell-based, human; conditions: Homo sapiens, 72 hrs, Cell Counting Kit-8
Summary of the method: as §2

[10] = 1 μM compound, human hepatocytes 1×10^6 cells/mL

T1 sequence (P01116 1-188 isoform P01116-2 G12C): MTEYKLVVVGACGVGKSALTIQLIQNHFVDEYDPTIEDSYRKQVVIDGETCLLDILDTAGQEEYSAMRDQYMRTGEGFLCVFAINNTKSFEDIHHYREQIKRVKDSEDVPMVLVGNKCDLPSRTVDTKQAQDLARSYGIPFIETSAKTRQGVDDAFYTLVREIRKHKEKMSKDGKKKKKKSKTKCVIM
T1 sequence (P62937 whole entry): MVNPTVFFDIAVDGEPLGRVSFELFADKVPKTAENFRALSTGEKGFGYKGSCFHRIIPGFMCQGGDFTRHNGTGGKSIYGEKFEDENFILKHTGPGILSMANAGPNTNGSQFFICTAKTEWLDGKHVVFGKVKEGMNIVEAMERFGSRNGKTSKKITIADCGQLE
KRAS G12V binding to BRAF, sequence (P01116 1-188 isoform P01116-2 G12V): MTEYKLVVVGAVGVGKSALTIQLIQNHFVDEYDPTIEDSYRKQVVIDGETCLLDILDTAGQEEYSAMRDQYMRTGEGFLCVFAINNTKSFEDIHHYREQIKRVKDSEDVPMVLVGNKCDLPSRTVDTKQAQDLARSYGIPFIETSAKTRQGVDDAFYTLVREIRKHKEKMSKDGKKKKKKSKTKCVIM
KRAS G12V binding to BRAF, sequence (P62937 whole entry): as the sequence (P62937 whole entry) above

CO[C@@H](C)c1ncc(N2CCN(C)CC2)cc1-c1c2c3cc(c(F)cc3n1CC(F)(F)F)-c1csc(n1)C[C@H](NC(=O)[C@H](C(C)C)N(C)C(=O)[C@H]1C[C@@H](C#CC(F)(F)F)C1)C(=O)N1CCC[C@H](N1)C(=O)OCC(C)(C)C2 (atropisomer, axis not shown; (M)) [Example 3, cis-N-[(1S)-1-[[(7S,13S)-24-fluoro-(20M)-20-[2-[(1S)-1-methoxyethyl]-5-(4-methylpiperazin-1-yl)-3-pyridyl]-17,17-dimethyl-8,14-dioxo-21-(2,2,2-trifluoroethyl)-15-oxa-4-thia-9,21,27,28-tetrazapentacyclo[17.5.2.1^2,5.1^9,13.0^22,26]octacosa-1(25),2,5(28),19,22(26),23-hexaen-7-yl]carbamoyl]-2-methyl-propyl]-N-methyl-3-(3,3,3-trifluoroprop-1-ynyl)cyclobutanecarboxamide]
IC50 [1]: 0.099 µM | CL_hep (Human) ([2]; human, 1 μM): 3.6 mL/min/kg | IC50 [3]: 0.003 µM | IC50 [4]: 0.007 µM | IC50 [5]: 2.18 µM | IC50 [6]: > 10 µM | IC50 [7]: 0.378 µM | IC50 [8]: 0.009 µM | IC50 [9]: 3.57 µM

CCn1c(-c2cc(N3CCN(CC(F)(F)F)CC3)cnc2[C@H](C)OC)c2c3cc(c(F)cc31)-c1csc(n1)C[C@H](NC(=O)[C@H](C(C)C)N(C)C(=O)[C@H]1C[C@@H](C#CC(F)(F)F)C1)C(=O)N1CCC[C@H](N1)C(=O)OCC(C)(C)C2 (atropisomer, axis not shown; (M)) [Example 8, cis-N-[(1S)-1-[[(7S,13S)-21-ethyl-24-fluoro-(20M)-20-[2-[(1S)-1-methoxyethyl]-5-[4-(2,2,2-trifluoroethyl)piperazin-1-yl]-3-pyridyl]-17,17-dimethyl-8,14-dioxo-15-oxa-4-thia-9,21,27,28-tetrazapentacyclo[17.5.2.1^2,5.1^9,13.0^22,26]octacosa-1(25),2,5(28),19,22(26),23-hexaen-7-yl]carbamoyl]-2-methyl-propyl]-N-methyl-3-(3,3,3-trifluoroprop-1-ynyl)cyclobutanecarboxamide]
IC50 [1]: 0.118 µM | CL_hep (Human) [2, 10]: 2.9 mL/min/kg | Clearance Category [2]: low (CL_hep (mL/min/kg)<6.96 is low clearance) | IC50 [3]: 0.019 µM | IC50 [4]: 0.005 µM | IC50 [5]: > 5 µM | IC50 [6]: > 10 µM | IC50 [7]: > 10 µM | IC50 [8]: 0.125 µM | IC50 [9]: > 5 µM

CCn1c(-c2cc(N3CCOCC3)cnc2[C@H](C)OC)c2c3cc(c(F)cc31)-c1csc(n1)C[C@H](NC(=O)[C@H](C(C)C)N(C)C(=O)[C@H]1C[C@@H](C#CC(F)(F)F)C1)C(=O)N1CCC[C@H](N1)C(=O)OCC(C)(C)C2 (atropisomer, axis not shown; (M)) [Example 11, cis-N-[(1S)-1-[[(7S,13S)-21-ethyl-24-fluoro-(20M)-20-[2-[(1S)-1-methoxyethyl]-5-morpholino-3-pyridyl]-17,17-dimethyl-8,14-dioxo-15-oxa-4-thia-9,21,27,28-tetrazapentacyclo[17.5.2.1^2,5.1^9,13.0^22,26]octacosa-1(25),2,5(28),19,22(26),23-hexaen-7-yl]carbamoyl]-2-methyl-propyl]-N-methyl-3-(3,3,3-trifluoroprop-1-ynyl)cyclobutanecarboxamide]
IC50 [1]: 0.065 µM | CL_hep (Human) [2, 10]: 3.3 mL/min/kg | Clearance Category [2]: low (CL_hep (mL/min/kg)<6.96 is low clearance) | IC50 [3]: 0.002 µM | IC50 [4]: 0.011 µM | IC50 [5]: 1.37 µM | IC50 [6]: > 10 µM | IC50 [7]: 3.77 µM | IC50 [8]: 0.187 µM | IC50 [9]: > 10 µM

CC#CC(=O)N1CC[C@H](C(=O)N(C)[C@H](C(=O)N[C@H]2Cc3nc(cs3)-c3ccc4c(c3)c(c(-c3cccnc3[C@H](C)OC)n4CC)CC(C)(C)COC(=O)[C@@H]3CCCN(N3)C2=O)C(C)C)C1 [Example A168, reference compound]
IC50 [1]: 0.173 µM | CL_hep (Human) [2, 10]: 8.8 mL/min/kg | Clearance Category [2]: medium (16.24<CL_hep (mL/min/kg) >6.96 is medium clearance) | IC50 [3]: 0.011 µM | IC50 [4]: 0.053 µM | IC50 [5]: 0.121 µM | IC50 [6]: 3.62 µM | IC50 [8]: 0.176 µM | IC50 [9]: 2.19 µM
